From a compilation of properties of binary mixtures (doi:10.1021/acs.jced.1c00419)

Test: xn = mol fraction of the nth substance listed
Conditions: 101.3 kPa

NC1CCCCC1 + CCCC[n+]1ccn(C)c1.F[B-](F)(F)F
speed of sound [m/s]
Conditions | x2 = 0 | x2 = 0.0982 | x2 = 0.2032 | x2 = 0.301 | x2 = 0.4012 | x2 = 0.4828 | x2 = 0.6016 | x2 = 0.7124 | x2 = 0.8012 | x2 = 0.9024
293.15 K | – | 1442 | 1456 | 1469 | 1484 | 1496 | 1514 | 1532 | 1545 | –
298.15 K | 1409 | 1420 | 1435 | 1450 | – | 1479 | – | 1517 | 1533 | 1549
303.15 K | 1387 | 1400 | 1415 | 1431 | 1448 | 1462 | 1484 | – | 1520 | 1538
308.15 K | – | 1380 | 1395 | 1412 | 1430 | 1445 | 1467 | 1488 | 1506 | 1525
313.15 K | 1344 | 1360 | 1376 | – | 1413 | 1428 | 1452 | 1474 | 1493 | –
318.15 K | 1323 | 1340 | 1357 | – | 1396 | 1412 | 1436 | 1460 | 1479 | 1501
323.15 K | – | 1320 | 1338 | 1356 | 1378 | 1395 | – | 1446 | 1466 | 1489

CCCCCCCCn1cc[n+](C)c1.F[B-](F)(F)F + NC1CCCCC1
speed of sound [m/s]
Conditions | x1 = 0.1076 | x1 = 0.203 | x1 = 0.3072 | x1 = 0.4001 | x1 = 0.492 | x1 = 0.6078 | x1 = 0.7023 | x1 = 0.7996 | x1 = 0.8963
293.15 K | – | 1453 | – | 1470 | – | 1480 | 1486 | 1490 | –
298.15 K | 1423 | – | 1445 | 1452 | 1459 | 1465 | – | 1475 | 1480
303.15 K | – | – | 1427 | 1435 | 1443 | 1450 | 1455 | 1460 | 1466
308.15 K | 1382 | 1396 | – | 1418 | 1426 | 1435 | 1440 | 1446 | 1452
313.15 K | 1362 | 1377 | 1391 | 1401 | – | 1419 | 1426 | 1432 | 1439
318.15 K | 1342 | 1358 | – | – | 1394 | – | – | 1418 | 1426
323.15 K | – | 1340 | 1355 | 1368 | 1377 | 1388 | 1396 | 1405 | –

NC1CCCCC1 + CCCCCCCCn1cc[n+](C)c1.F[B-](F)(F)F
x2 = 0
Conditions | speed of sound [m/s]
293.15 K | 1430
303.15 K | 1387
323.15 K | 1302

NC1CCCCC1 + CCCCCC[n+]1ccn(C)c1.F[B-](F)(F)F
x2 = 0
Conditions | speed of sound [m/s]
293.15 K | 1430
298.15 K | 1409
303.15 K | 1387
308.15 K | 1366
313.15 K | 1344
318.15 K | 1323
323.15 K | 1302

CCCCCC[n+]1ccn(C)c1.F[B-](F)(F)F + NC1CCCCC1
speed of sound [m/s]
Conditions | x1 = 0.097 | x1 = 0.1808 | x1 = 0.2945 | x1 = 0.396 | x1 = 0.5009 | x1 = 0.6048 | x1 = 0.7029 | x1 = 0.8008 | x1 = 0.8991
293.15 K | 1440 | 1452 | 1465 | – | 1486 | 1496 | 1505 | – | 1522
298.15 K | – | – | 1446 | 1458 | 1469 | 1480 | 1490 | 1499 | –
303.15 K | 1400 | 1411 | 1427 | 1440 | 1453 | – | 1475 | 1485 | 1496
308.15 K | 1379 | 1392 | 1408 | 1422 | 1435 | 1449 | 1460 | – | –
313.15 K | – | 1371 | 1389 | 1404 | 1418 | – | 1445 | 1457 | 1470
318.15 K | 1337 | 1351 | 1370 | 1385 | 1402 | 1417 | 1430 | 1444 | –
323.15 K | 1316 | 1331 | – | – | – | 1401 | – | 1430 | 1444
